# Results published in patent publication US11173137B2, “Compositions and methods to modulate chloride ion channel activity” (The Board of Trustees of the Leland Stanford Junior …, priority 2018, dated 2021).
# Values joined by “and” are separate entries in the source; they are usually repeats but may differ in a detail not shown here. Identical values can stand only once. Like-named read-outs stand apart in the source and are kept apart here.
# Assays:
# [1] = molecular target: CLC-1 (Homo sapiens (Human), UniProt P35523); experiment: IonWorks Barracuda automated patch-clamp electrophysiology, CLC-1; format: cell-based; conditions: for IC50: Table 2; for percent inhibition of CLC-1 at highest concentration tested (in parenthesis): at the concentration listed in the same cell
# Method: If the IC50 was greater than the highest concentration tested, this concentration is listed along with the percent inhibition at this concentration (in parenthesis).
# FIG. 8, panels A and B depict graphically the Selectivity between CLC-1 and CLC-2. […] Data points represent the mean current block at 16 different FA44 concentrations (n=4-8), using the IonWorks™ Barracuda. […] Panel B depicts a summary graph showing the mean inhibition of CLC-1 (left bar) or CLC-2 (right bar) current at 30 μM, illustrating the improvement in both selectivity and potency from the hit compound MCFA to the exemplary compound FA44.
# [2] = molecular target: mGluR5 (Homo sapiens (Human), UniProt P41594); experiment: PDSP primary binding assay and secondary assay; conditions: for % (10 μM): primary binding assay at 10 μM; for Ki: secondary or functional assay
# Method: (§1) Two exemplary compounds, FA44 and FA26, were screened against a panel of CNS receptors, transporters, and ion channels to examine specificity for CLC-2 in the brain. A comprehensive primary binding assay screen was performed through the NIH Psychoactive Drug Screening Program (PDSP) at UNC-Chapel Hill. Secondary or functional assays were performed for compounds showing >50% activity in the primary assay.
# [3] = molecular target: 5-HT1A (Homo sapiens (Human), UniProt P08908); experiment: PDSP primary binding assay and secondary assay; conditions: for % (10 μM): primary binding assay at 10 μM; for Ki: secondary or functional assay
# Method: as §1
# [4] = molecular target: M4 (Homo sapiens (Human), UniProt P08173); experiment: PDSP primary binding assay and secondary assay; conditions: for % (10 μM): primary binding assay at 10 μM
# Method: as §1
# [5] = molecular target: Alpha2A (Homo sapiens (Human), UniProt P08913); experiment: PDSP primary binding assay and secondary assay; conditions: for % (10 μM): primary binding assay at 10 μM
# Method: as §1
# [6] = molecular target: M1 (Homo sapiens (Human), UniProt P11229); experiment: PDSP primary binding assay and secondary assay; conditions: for % (10 μM): primary binding assay at 10 μM
# Method: as §1
# [7] = molecular target: M3 (Homo sapiens (Human), UniProt P20309); experiment: PDSP primary binding assay and secondary assay; conditions: for % (10 μM): primary binding assay at 10 μM; for Ki: secondary or functional assay
# Method: as §1
# [8] = molecular target: HERG (Homo sapiens (Human), UniProt Q12809); experiment: PDSP primary binding assay and secondary assay; conditions: for % (10 μM): primary binding assay at 10 μM
# Method: as §1
# [9] = molecular target: M5 (Homo sapiens (Human), UniProt P08912); experiment: PDSP primary binding assay and secondary assay; conditions: for % (10 μM): primary binding assay at 10 μM; for Ki: secondary or functional assay
# Method: as §1
# [10] = molecular target: 5-HT2A (Homo sapiens (Human), UniProt P28223); experiment: PDSP primary binding assay; conditions: primary binding assay at 10 μM
# Method: as §1
# [11] = molecular target: Beta2 (Homo sapiens (Human), UniProt P07550); experiment: PDSP primary binding assay; conditions: primary binding assay at 10 μM
# Method: as §1
# [12] = molecular target: MOR (Homo sapiens (Human), UniProt P35372); experiment: PDSP primary binding assay; conditions: primary binding assay at 10 μM
# Method: as §1
# [13] = molecular target: D1 (Homo sapiens (Human), UniProt P21728); experiment: PDSP primary binding assay; conditions: primary binding assay at 10 μM
# Method: as §1
# [14] = tested on: NMDA; experiment: PDSP primary binding assay; conditions: primary binding assay at 10 μM
# Method: as §1
# [15] = tested on: Calcium channel; experiment: PDSP primary binding assay; conditions: primary binding assay at 10 μM
# Method: as §1
# [16] = molecular target: Alpha1D (Homo sapiens (Human), UniProt P25100); experiment: PDSP primary binding assay; conditions: primary binding assay at 10 μM
# Method: as §1
# [17] = molecular target: Alpha2B (Homo sapiens (Human), UniProt P18089); experiment: PDSP primary binding assay; conditions: primary binding assay at 10 μM
# Method: as §1
# [18] = molecular target: Beta1 (Homo sapiens (Human), UniProt P08588); experiment: PDSP primary binding assay; conditions: primary binding assay at 10 μM
# Method: as §1
# [19] = tested on: KA; experiment: PDSP primary binding assay; conditions: primary binding assay at 10 μM
# Method: as §1
# [20] = molecular target: Beta3 (Homo sapiens (Human), UniProt P13945); experiment: PDSP primary binding assay; conditions: primary binding assay at 10 μM
# Method: as §1
# [21] = tested on: BZP rat brain site; experiment: PDSP primary binding assay; conditions: primary binding assay at 10 μM
# Method: as §1
# [22] = molecular target: Oxytocin (Homo sapiens (Human), UniProt P30559); experiment: PDSP primary binding assay; conditions: primary binding assay at 10 μM
# Method: as §1
# [23] = molecular target: H1 (Homo sapiens (Human), UniProt P35367); experiment: PDSP primary binding assay; conditions: primary binding assay at 10 μM
# Method: as §1
# [24] = molecular target: D2 (Homo sapiens (Human), UniProt P14416); experiment: PDSP primary binding assay; conditions: primary binding assay at 10 μM
# Method: as §1
# [25] = molecular target: 5-HT1B (Homo sapiens (Human), UniProt P28222); experiment: PDSP primary binding assay; conditions: primary binding assay at 10 μM
# Method: as §1
# [26] = molecular target: Sigma 2 (Homo sapiens (Human), UniProt Q5BJF2); experiment: PDSP primary binding assay; conditions: primary binding assay at 10 μM
# Method: as §1
# [27] = molecular target: PBR (Homo sapiens (Human), UniProt P30536); experiment: PDSP primary binding assay; conditions: primary binding assay at 10 μM
# Method: as §1
# [28] = molecular target: D5 (Homo sapiens (Human), UniProt P21918); experiment: PDSP primary binding assay; conditions: primary binding assay at 10 μM
# Method: as §1
# [29] = molecular target: H4 (Homo sapiens (Human), UniProt Q9H3N8); experiment: PDSP primary binding assay; conditions: primary binding assay at 10 μM
# Method: as §1
# [30] = molecular target: Alpha2C (Homo sapiens (Human), UniProt P18825); experiment: PDSP primary binding assay; conditions: primary binding assay at 10 μM
# Method: as §1
# [31] = tested on: GABAA; experiment: PDSP primary binding assay; conditions: primary binding assay at 10 μM
# Method: as §1
# [32] = molecular target: M2 (Homo sapiens (Human), UniProt P08172); experiment: PDSP primary binding assay; conditions: primary binding assay at 10 μM
# Method: as §1
# [33] = molecular target: DAT (Homo sapiens (Human), UniProt Q01959); experiment: PDSP primary binding assay; conditions: primary binding assay at 10 μM
# Method: as §1
# [34] = molecular target: D4 (Homo sapiens (Human), UniProt P21917); experiment: PDSP primary binding assay; conditions: primary binding assay at 10 μM
# Method: as §1
# [35] = molecular target: H2 (Homo sapiens (Human), UniProt P25021); experiment: PDSP primary binding assay; conditions: primary binding assay at 10 μM
# Method: as §1
# [36] = molecular target: CLC-2 (Homo sapiens (Human), UniProt P51788); experiment: IonWorks Barracuda automated patch-clamp electrophysiology, human CLC-2 cell line; format: cell-based; conditions: for times greater potency towards CLC-2 compared to CLC-1: CLC-2 versus CLC-1
# From the text: FIG. 8, panels A and B depict graphically the Selectivity between CLC-1 and CLC-2. […]
# [37] = n = 4 cells, four concentrations of each compound, IonWorks Barracuda, read-out: IC50 (μM) against CLC-2
# Sequence of M1 (P11229 whole entry): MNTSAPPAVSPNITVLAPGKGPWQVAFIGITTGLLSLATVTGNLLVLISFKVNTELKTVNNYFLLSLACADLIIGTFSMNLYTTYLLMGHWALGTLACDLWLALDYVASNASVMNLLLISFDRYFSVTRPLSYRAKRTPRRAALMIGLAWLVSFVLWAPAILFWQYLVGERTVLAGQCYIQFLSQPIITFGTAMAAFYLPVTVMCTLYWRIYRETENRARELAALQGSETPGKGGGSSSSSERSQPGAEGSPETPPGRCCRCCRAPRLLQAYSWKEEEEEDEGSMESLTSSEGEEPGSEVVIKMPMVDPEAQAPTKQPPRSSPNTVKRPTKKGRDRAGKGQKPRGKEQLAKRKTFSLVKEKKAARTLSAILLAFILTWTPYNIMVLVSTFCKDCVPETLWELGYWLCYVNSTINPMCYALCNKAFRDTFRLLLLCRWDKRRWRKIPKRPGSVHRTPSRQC
# Sequence of CLC-1 (P35523 whole entry): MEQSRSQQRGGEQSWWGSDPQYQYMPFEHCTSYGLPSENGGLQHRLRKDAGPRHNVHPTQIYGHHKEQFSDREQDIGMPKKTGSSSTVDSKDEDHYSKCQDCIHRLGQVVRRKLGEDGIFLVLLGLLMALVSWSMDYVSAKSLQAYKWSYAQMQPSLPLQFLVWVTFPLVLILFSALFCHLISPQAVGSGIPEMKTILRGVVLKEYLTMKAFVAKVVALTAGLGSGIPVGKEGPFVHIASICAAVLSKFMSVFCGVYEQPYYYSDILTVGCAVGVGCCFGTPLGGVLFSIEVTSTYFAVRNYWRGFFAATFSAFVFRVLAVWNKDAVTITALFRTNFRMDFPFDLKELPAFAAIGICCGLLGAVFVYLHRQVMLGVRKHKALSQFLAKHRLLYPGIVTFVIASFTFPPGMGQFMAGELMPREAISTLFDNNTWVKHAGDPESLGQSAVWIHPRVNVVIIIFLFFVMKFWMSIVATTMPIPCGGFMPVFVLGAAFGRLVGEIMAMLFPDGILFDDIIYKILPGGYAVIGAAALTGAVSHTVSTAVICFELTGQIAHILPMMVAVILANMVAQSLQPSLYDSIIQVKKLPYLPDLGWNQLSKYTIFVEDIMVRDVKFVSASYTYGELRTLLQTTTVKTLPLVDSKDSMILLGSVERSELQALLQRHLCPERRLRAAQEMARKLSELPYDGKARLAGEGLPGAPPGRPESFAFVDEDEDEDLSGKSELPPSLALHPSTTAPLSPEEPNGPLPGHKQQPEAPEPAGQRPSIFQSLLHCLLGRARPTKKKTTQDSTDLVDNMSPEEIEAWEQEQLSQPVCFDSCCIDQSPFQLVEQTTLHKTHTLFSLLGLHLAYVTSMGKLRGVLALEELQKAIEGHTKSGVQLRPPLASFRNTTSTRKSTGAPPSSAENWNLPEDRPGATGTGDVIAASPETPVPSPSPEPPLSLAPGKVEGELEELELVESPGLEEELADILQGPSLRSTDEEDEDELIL
# Sequence of 5-HT1A (P08908 whole entry, species assumed): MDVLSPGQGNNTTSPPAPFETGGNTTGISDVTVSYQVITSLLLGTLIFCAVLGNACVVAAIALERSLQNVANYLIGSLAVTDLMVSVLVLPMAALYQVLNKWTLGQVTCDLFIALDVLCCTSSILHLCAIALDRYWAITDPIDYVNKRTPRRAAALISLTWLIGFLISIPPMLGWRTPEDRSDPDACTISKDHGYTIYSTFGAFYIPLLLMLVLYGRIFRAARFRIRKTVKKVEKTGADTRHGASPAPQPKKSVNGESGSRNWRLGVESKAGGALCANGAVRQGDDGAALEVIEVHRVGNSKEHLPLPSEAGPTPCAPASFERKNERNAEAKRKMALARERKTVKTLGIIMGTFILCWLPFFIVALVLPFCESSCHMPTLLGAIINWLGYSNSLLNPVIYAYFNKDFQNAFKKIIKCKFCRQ
# Sequence of M4 (P08173 whole entry): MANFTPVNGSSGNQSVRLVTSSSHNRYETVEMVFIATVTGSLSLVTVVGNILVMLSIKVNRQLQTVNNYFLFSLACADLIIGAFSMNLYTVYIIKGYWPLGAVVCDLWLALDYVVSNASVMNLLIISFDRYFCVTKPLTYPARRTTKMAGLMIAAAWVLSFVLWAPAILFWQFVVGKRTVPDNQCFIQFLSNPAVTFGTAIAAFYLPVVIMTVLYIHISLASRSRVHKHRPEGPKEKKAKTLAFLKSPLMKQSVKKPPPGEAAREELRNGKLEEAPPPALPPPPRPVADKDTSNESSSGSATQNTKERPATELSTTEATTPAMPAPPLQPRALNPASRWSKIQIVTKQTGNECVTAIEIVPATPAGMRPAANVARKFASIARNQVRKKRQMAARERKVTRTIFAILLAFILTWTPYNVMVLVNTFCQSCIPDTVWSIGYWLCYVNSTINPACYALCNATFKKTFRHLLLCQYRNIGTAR
# Sequence of M5 (P08912 whole entry): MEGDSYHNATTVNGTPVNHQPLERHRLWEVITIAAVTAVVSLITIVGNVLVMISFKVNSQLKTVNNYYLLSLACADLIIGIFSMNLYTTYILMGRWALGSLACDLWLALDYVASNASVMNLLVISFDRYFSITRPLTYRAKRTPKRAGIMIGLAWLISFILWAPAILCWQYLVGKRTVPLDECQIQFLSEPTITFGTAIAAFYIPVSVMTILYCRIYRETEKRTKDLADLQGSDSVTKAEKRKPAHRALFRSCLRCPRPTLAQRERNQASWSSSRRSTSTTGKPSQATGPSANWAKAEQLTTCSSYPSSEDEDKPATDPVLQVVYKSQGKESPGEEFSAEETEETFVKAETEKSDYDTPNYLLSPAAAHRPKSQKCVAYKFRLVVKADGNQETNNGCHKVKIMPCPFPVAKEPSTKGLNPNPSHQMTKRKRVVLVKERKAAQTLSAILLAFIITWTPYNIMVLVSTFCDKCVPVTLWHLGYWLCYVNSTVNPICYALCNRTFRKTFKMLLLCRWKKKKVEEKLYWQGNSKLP
# Sequence of HERG (Q12809 whole entry): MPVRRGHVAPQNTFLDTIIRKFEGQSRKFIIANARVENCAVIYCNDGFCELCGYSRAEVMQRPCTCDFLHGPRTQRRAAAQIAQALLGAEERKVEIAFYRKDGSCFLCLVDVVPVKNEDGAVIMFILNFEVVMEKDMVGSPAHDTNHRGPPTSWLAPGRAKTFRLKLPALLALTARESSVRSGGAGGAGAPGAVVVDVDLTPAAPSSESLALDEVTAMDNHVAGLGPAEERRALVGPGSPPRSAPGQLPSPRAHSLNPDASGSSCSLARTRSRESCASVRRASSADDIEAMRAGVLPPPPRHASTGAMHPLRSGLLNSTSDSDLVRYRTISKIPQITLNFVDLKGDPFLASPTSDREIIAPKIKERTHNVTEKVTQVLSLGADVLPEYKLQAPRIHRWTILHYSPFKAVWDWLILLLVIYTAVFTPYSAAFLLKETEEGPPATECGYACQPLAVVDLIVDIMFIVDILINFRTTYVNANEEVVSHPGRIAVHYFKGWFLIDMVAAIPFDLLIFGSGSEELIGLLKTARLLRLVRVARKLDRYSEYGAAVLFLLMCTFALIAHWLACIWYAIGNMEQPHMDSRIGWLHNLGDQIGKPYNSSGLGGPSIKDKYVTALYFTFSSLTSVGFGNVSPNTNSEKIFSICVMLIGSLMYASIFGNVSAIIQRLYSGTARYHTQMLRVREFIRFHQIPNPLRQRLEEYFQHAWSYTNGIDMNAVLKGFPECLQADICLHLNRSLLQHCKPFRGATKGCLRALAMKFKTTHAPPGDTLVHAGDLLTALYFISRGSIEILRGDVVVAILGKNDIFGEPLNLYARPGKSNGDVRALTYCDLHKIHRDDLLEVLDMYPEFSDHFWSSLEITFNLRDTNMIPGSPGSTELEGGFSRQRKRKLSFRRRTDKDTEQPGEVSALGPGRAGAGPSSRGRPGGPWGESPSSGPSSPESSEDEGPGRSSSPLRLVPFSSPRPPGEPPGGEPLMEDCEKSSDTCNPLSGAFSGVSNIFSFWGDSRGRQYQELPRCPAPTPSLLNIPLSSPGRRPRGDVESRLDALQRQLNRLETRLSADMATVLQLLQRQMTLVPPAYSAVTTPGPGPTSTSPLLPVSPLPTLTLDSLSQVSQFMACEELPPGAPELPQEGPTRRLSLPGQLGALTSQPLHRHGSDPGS
# Sequence of M3 (P20309 whole entry): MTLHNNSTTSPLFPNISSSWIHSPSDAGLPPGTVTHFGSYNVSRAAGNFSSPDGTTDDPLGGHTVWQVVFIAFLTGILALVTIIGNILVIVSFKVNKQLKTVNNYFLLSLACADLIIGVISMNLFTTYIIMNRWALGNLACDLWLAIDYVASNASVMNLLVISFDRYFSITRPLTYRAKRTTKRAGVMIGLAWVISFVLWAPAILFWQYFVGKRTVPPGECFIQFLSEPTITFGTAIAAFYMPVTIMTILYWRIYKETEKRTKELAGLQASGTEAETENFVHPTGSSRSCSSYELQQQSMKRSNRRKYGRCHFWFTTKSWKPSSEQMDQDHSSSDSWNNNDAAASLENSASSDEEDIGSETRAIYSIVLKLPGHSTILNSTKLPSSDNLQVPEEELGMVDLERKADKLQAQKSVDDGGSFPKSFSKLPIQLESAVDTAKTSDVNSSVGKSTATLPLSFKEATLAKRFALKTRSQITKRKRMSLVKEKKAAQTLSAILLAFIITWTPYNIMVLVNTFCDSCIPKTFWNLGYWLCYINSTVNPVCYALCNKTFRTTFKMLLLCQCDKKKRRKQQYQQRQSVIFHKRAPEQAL
# Sequence of 5-HT1B (P28222 whole entry, species assumed): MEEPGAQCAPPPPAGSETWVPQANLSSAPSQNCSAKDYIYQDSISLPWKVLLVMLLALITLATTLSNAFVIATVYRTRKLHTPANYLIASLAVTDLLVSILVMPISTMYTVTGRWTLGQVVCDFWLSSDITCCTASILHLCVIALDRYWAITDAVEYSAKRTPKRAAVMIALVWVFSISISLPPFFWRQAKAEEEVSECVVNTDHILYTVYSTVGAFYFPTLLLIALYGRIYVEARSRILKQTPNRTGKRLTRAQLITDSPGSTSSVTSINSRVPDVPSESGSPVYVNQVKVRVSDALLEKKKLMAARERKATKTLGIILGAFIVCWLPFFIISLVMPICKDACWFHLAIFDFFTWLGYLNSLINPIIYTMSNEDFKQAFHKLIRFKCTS
smiles,measurement,setting,value
O=C(O)c1ccccc1Nc1c(Cl)ccc(OCc2ccccc2)c1Cl [AK3-99B],IC50,[1],> 30 µM
same,percent inhibition of CLC-1 at highest concentration tested (in parenthesis),[1],25%
same,% (10 μM),[2],47.44%
same,Ki,[2],> 10 µM
same,% (10 μM),[3],50.00%
same,Ki,[3],> 10 µM
same,% (10 μM),[4],−3.01%
same,% (10 μM),[5],65.08%
same,Ki,[5]; secondary or functional assay,3 µM
same,% (10 μM),[6],58.54%
same,Ki,[6]; secondary or functional assay,> 10 µM
same,% (10 μM),[7],65.66%
same,Ki,[7],> 10 µM
same,% (10 μM),[8],−15.95%
same,% (10 μM),[9],56.99%
same,Ki,[9],> 10 µM
same,% (10 μM),[10],19.70%
same,% (10 μM),[11],−8.08%
same,% (10 μM),[12],9.03%
same,% (10 μM),[13],27.05%
same,% (10 μM),[14],39.29%
same,% (10 μM),[15],12.22%
same,% (10 μM),[16],7.20%
same,% (10 μM),[17],15.62%
same,% (10 μM),[18],−13.11%
same,% (10 μM),[19],13.56%
same,% (10 μM),[20],32.58%
same,% (10 μM),[21],40.75%
same,% (10 μM),[22],8.80%
same,% (10 μM),[23],−4.62%
same,% (10 μM),[24],−6.96%
same,% (10 μM),[25],−0.25%
same,% (10 μM),[26],−9.10%
same,% (10 μM),[27],2.28%
same,% (10 μM),[28],27.29%
same,% (10 μM),[29],8.29%
same,% (10 μM),[30],17.28%
same,% (10 μM),[31],−17.65%
same,% (10 μM),[32],14.57%
same,% (10 μM),[33],−17.73%
same,% (10 μM),[34],−0.19%
same,% (10 μM),[35],25.62%
same,IC50,"[36]; Table 2, read-out: IC50 (CLC-2)",1.7 ± 0.2 µM
same,IC50,[36]; [37],0.62 µM
same,IC50,"[36]; text and FIG. 3, Table 1 series, read-out: IC50 against CLC-2",~0.6 µM and 0.6 µM
O=C(O)c1cccnc1Nc1c(Cl)ccc(OCc2ccccc2)c1Cl [AK3-238],IC50,[1],> 100 µM
same,percent inhibition of CLC-1 at highest concentration tested (in parenthesis),[1],22%
same,% (10 μM),[2],57.39%
same,Ki,[2],> 10 µM
same,% (10 μM),[3],53.99%
same,Ki,[3],> 10 µM
same,% (10 μM),[4],56.16%
same,Ki,[4]; secondary or functional assay,> 5 µM
same,% (10 μM),[5],−2.55%
same,% (10 μM),[6],11.29%
same,% (10 μM),[7],54.64%
same,Ki,[7],> 3 µM
same,% (10 μM),[8],−43.87%
same,Ki,[8]; secondary or functional assay,> 10 µM
same,% (10 μM),[9],13.55%
same,Ki,[9],> 10 µM
same,% (10 μM),[10],18.91%
same,% (10 μM),[11],4.77%
same,% (10 μM),[12],−0.18%
same,% (10 μM),[13],−9.96%
same,% (10 μM),[14],24.18%
same,% (10 μM),[15],23.69%
same,% (10 μM),[16],−10.12%
same,% (10 μM),[17],−28.62%
same,% (10 μM),[18],22.04%
same,% (10 μM),[19],36.60%
same,% (10 μM),[20],24.76%
same,% (10 μM),[21],29.32%
same,% (10 μM),[22],−1.41%
same,% (10 μM),[23],15.48%
same,% (10 μM),[24],7.69%
same,% (10 μM),[25],49.89%
same,% (10 μM),[26],−8.14%
same,% (10 μM),[27],8.22%
same,% (10 μM),[28],31.58%
same,% (10 μM),[29],2.23%
same,% (10 μM),[30],3.41%
same,% (10 μM),[31],−4.29%
same,% (10 μM),[32],−8.25%
same,% (10 μM),[33],9.23%
same,% (10 μM),[34],−0.65%
same,% (10 μM),[35],5.35%
same,% inhibition at the concentration listed (in parenthesis),"[36]; CLC-2, at the concentration listed in the IC50 cell, negative = increase in peak current",(90%)
same,times greater potency towards CLC-2 compared to CLC-1,[36],"approximately 10,000 times"
same,times greater potency towards CLC-2 compared to CLC-1,[36]; listed as FA44,"10,000 times"
same,selectivity CLC-2 over CLC-1,[36]; FIG. 8 panel A,selective for CLC-2 over CLC-1
same,IC50,"[36]; Table 2 / FIG. 8, 16 concentrations, n=4-8, −120 mV, read-out: IC50 (CLC-2)",0.017 ± 0.002 µM
same,IC50,[36]; [37],< 0.12 µM
